Data from ChEMBL document CHEMBL1201862, “PubChem BioAssay data set” (2004).
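Briefly, cells in 96-well plates were exposed to five compound concentrations for 48 h, and endpoints were estimated by linear interpolation. Abbreviation: GI50, concentration required for 50% inhibition of growth.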 Active and inactive are the calls of the source. Rule as the data show it: active = GI50 up to about 1.1 µM and inactive = higher.

How the values were obtained:
Assay in all cases: inhibition of tumour cell growth, NCI panel, 48 h
[1] = system: HOP-92
[2] = system: SK-MEL-5
[3] = system: SF-539
[4] = system: HCT-116
[5] = system: SF-295
[6] = system: IGROV-1
[7] = system: SK-MEL-2
[8] = system: UACC-257
[9] = system: 786-0
[10] = system: HCT-15
[11] = system: ACHN
[12] = system: DU-145
[13] = system: U-251
[14] = system: K562
[15] = system: OVCAR-4
[16] = system: HCC 2998
[17] = system: PC-3
[18] = system: SK-MEL-28
[19] = system: SNB-75
[20] = system: HL-60

| SMILES | GI50 [1] | GI50 [2] | GI50 [3] | GI50 [4] | GI50 [5] | GI50 [6] | GI50 [7] | GI50 [8] | GI50 [9] | GI50 [10] | GI50 [11] | GI50 [12] | GI50 [13] | GI50 [14] | GI50 [15] | GI50 [16] | GI50 [17] | GI50 [18] | GI50 [19] | GI50 [20] |
| --- | --- | --- | --- | --- | --- | --- | --- | --- | --- | --- | --- | --- | --- | --- | --- | --- | --- | --- | --- | --- |
| O=c1oc2ccc(Cl)cc2cc1-c1cn2ccsc2n1 | 12.4 µM (inactive) | 51.1 µM (inactive) | 98.4 µM (inactive) | 36.6 µM (inactive) | 29.2 µM (inactive) | 20.5 µM (inactive) | 50.6 µM (inactive) | 95.1 µM (inactive) | 58.5 µM (inactive) | 36.1 µM | 60.5 µM (inactive) | 95.7 µM (inactive) | 51.9 µM (inactive) | 33.5 µM (inactive) | 33.4 µM (inactive) | 34.1 µM (inactive) | 52.6 µM (inactive) | > 100 µM (inactive) | > 100 µM (inactive) | 32.3 µM (inactive) |
| COc1cc(C2c3cc4c(cc3[C@H](OCCN(C)C)[C@@H]3COC(=O)C23)OCO4)cc(OC)c1O (stereo not given in full) | 0.0989 µM (active) | 0.307 µM (active) | 0.0671 µM (active) | 0.753 µM (active) | 0.0681 µM (active) | 1.36 µM (inactive) | 0.706 µM (active) | 1.37 µM (inactive) | 0.0614 µM (active) | 0.605 µM | 0.0293 µM (active) | 0.134 µM (active) | 0.0468 µM (active) | 0.713 µM (active) | 1.84 µM (inactive) | 0.774 µM (active) | 0.805 µM (active) | 1.02 µM (active) | 0.307 µM (active) | < 0.01 µM (active) |
| O=c1cc(-c2ccccc2)oc2ccc(Cl)cc12 [6-CHLOROFLAVONE] | 22.8 µM (inactive) | > 100 µM (inactive) | 37.7 µM (inactive) | 46.6 µM (inactive) | 44.2 µM (inactive) | > 82 µM (inactive) | > 84.7 µM (inactive) | > 54.5 µM (inactive) | 33.3 µM (inactive) | > 100 µM | 61.2 µM (inactive) | > 56.6 µM (inactive) | 37.7 µM (inactive) | > 74.6 µM (inactive) | > 44.3 µM (inactive) | > 56.4 µM (inactive) | > 52.5 µM (inactive) | > 65.6 µM (inactive) | 26.8 µM (inactive) | > 46.5 µM (inactive) |
| COc1cccc(N(CN2C(=O)CCC2C(=O)O)C(C)=O)c1 (stereo not given) | > 100 µM (inactive) | > 100 µM (inactive) | > 100 µM (inactive) | > 100 µM (inactive) | > 100 µM (inactive) | > 100 µM (inactive) | > 100 µM (inactive) | > 100 µM (inactive) | > 100 µM (inactive) | > 100 µM | > 100 µM (inactive) | > 100 µM (inactive) | > 100 µM (inactive) | > 100 µM (inactive) | > 100 µM (inactive) | > 100 µM (inactive) | > 100 µM (inactive) | > 100 µM (inactive) | > 100 µM (inactive) | > 100 µM (inactive) |
| CCc1ccc(NC(=O)NC(=O)c2ccccc2[N+](=O)[O-])cc1Oc1ncc(Cl)cn1 | < 0.01 µM (active) | < 0.0139 µM (active) | 0.0137 µM (active) | 0.0331 µM (active) | < 0.0222 µM (active) | < 0.0165 µM (active) | < 0.01 µM (active) | < 0.01 µM (active) | 0.0158 µM (active) | 0.0141 µM | 0.0386 µM (active) | 0.0578 µM (active) | 0.0181 µM (active) | < 0.0145 µM (active) | 2.61 µM (inactive) | 0.027 µM (active) | < 0.01 µM (active) | 0.37 µM (active) | < 0.01 µM (active) | < 0.013 µM (active) |
| c1ccc2c3nnc(c2c1)SCCSCCCSCCS3 | 37.2 µM (inactive) | 54.1 µM (inactive) | 12.6 µM (inactive) | > 100 µM (inactive) | 31.4 µM (inactive) | 34.4 µM (inactive) | 58.7 µM (inactive) | > 100 µM (inactive) | 29.1 µM (inactive) | > 100 µM | 61.1 µM (inactive) | > 100 µM (inactive) | 36.1 µM (inactive) | > 100 µM (inactive) | 2.9 µM (inactive) | > 100 µM (inactive) | 43.1 µM (inactive) | > 100 µM (inactive) | 3.52 µM (inactive) | > 100 µM (inactive) |
| COC(=O)c1ccc(C)cc1CC1Cc2ccc(C)cc2C1=O (stereo not given) | 23 µM (inactive) | 7.29 µM (inactive) | 5.6 µM (inactive) | 5.15 µM (inactive) | 10.7 µM (inactive) | 7.87 µM (inactive) | 11.9 µM (inactive) | 13.2 µM (inactive) | 13.7 µM (inactive) | 3.24 µM | 22 µM (inactive) | 22.9 µM (inactive) | 4.07 µM (inactive) | 3.21 µM (inactive) | 16.1 µM (inactive) | 10.1 µM (inactive) | 12.1 µM (inactive) | 8.43 µM (inactive) | 5.69 µM (inactive) | 3.47 µM (inactive) |
